Key:
golden Syrian hamsters [1] = test: IFN-γ ELISPOT of spleen and lymph node cells from immunized hamsters; assay type: in vivo; conditions: listed in rank order
C57BL/6J mice = test: Antibody ELISA of sera from immunized mice; assay type: in vivo; conditions: listed in rank order
Experimental: Briefly, Immulon 4 HBX 96-well plates for ELISA are obtained from Thermo Fisher Scientific (Waltham, Mass.). The plate is coated with 1 μg/well of either a pool of peptides or individual peptides in coating buffer (50 mM sodium carbonate, pH 9.6) overnight at 4° C. After the coating buffer is removed, the plate is blocked with 2% BSA in PBS for 1 hour at room temperature, followed by washing three times with 0.5% Tween in PBS (PBST). Sera are diluted 1:200 in PBS and added to each well and the plate is incubated for 2 hours at room temperature. After incubation, the plate is washed three times with PBST. The secondary antibody is conjugated with HRP, and iss added at a 1:10,000 dilution in PBS. The plate is incubated for 1 hour at room temperature. After washing three times with PBST, TMBE-100 peroxidase substrate (Rockland Immunochemicals, Inc., Limerick, Pa.) is added, followed by 30 minutes incubation at room temperature. Finally, the enzymatic reaction is stopped by adding 2M H2SO4. Optical density at 450 nm (OD450) is read within 15 minutes after adding H2SO4 using a Spectramax® ABS Plus microplate reader (Molecular Devices, San Jose, Calif.) and the SoftMax® 7 Pro Software. […]

golden Syrian hamsters [2] = test: Peptide-specific antibody ELISA of sera from immunized hamsters; assay type: in vivo; conditions: listed in rank order
Experimental: Female golden Syrian hamsters (Charles River Laboratories, Wilmington, Mass.) are immunized with a 2-dose regimen with a 14-day interval between doses. Two weeks after the second dose, hamsters are euthanized. Hamster blood is collected by cardiac puncture and serum is prepared for the quantification of peptide-specific antibodies by an in-house indirect ELISA method. Spleens and draining lymph nodes serve as a source of cells for the IFN-γ ELISPOT and other assays. Unless otherwise noted, water-in-oil emulsions are administered subcutaneously, all other adjuvant formulations are administered intramuscularly.
A total of 52 peptides are tested for immunogenicity. Antibody responses in hamster sera specimens to individual peptides or peptide pools are quantified by ELISA.
Briefly, Immulon 4 HBX 96-well plates for ELISA are obtained from Thermo Fisher Scientific (Waltham, Mass.). The plate is coated with 1 μg/well of either a pool of peptides or individual peptides in coating buffer (50 mM sodium carbonate, pH 9.6) overnight at 4° C. […] Optical density at 450 nm (OD450) is read within 15 minutes after adding H2SO4 using a Spectramax® ABS Plus microplate reader (Molecular Devices, San Jose, Calif.) and the SoftMax® 7 Pro Software.

rVSV-SARS-CoV-2-S virus = conditions: in vivo

Row | Sequence | Hamsters ELISPOT: top 10 immunogenic peptides, ranked on magnitude of responses (golden Syrian hamsters [1]) | Mice ELISA: top 10 immunogenic peptides, ranked on magnitude of responses (C57BL/6J mice) | Hamsters ELISA: top 10 immunogenic peptides, ranked on magnitude of responses (golden Syrian hamsters [2]) | neutralization activity of peptide-specific antibody (rVSV-SARS-CoV-2-S virus)
1 | YFTSDYYQLYSTQLSTDTGV [ORF3a] | ORF3a | ORF3a | ORF3a | 
2 | SRIGMEVTPSGTWLTYTGAIKLDDKDPNFKDQVILLNKHIDAYK (N-overlap Long) |  |  |  | non-specific background
3 | PQIQLAVTRMENAVGRD [ORF9b.1*11] | ORF9b.1*11 | ORF9b.1*11 | ORF9b.1*11 | 
